According to patent publication US8338465B2, “Cyclic carboxylic acid rhodanine derivatives for the treatment and prevention of tuberculosis” (priority 2006, dated 2012):
Like-named read-outs stand apart in the source and are kept apart here.

Molecular target: T1, dihydrolipoamide acyltransferase (DlaT) (Mycobacterium tuberculosis, UniProt P9WIS7)
T1 sequence (P9WIS7 1-553): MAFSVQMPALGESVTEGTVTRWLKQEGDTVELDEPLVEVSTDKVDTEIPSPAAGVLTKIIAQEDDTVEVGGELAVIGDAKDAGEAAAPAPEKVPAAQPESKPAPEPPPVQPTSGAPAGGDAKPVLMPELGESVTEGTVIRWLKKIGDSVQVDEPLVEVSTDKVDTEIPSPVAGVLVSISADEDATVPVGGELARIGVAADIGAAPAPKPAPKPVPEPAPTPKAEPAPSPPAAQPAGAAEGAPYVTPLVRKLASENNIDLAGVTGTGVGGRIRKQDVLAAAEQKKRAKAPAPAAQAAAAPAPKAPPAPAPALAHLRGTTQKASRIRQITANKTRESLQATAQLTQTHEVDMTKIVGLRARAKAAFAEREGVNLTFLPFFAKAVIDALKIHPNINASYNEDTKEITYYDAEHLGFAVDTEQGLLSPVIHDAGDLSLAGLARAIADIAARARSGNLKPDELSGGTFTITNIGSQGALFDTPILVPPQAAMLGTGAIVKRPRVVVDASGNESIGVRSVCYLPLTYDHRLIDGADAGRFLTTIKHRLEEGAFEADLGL
Assay: DlaT inhibition (Dlat IC50); DTNB peroxidase assay with Lpd, DlaT and AhpD
Format: biochemical

[1] = Table 1, Compounds A1 to A294, read-out: Dlat IC50 category

O=C(O)C1CCCC(N2C(=O)C(=Cc3ccc(-c4cccc(C(F)(F)F)c4)o3)SC2=S)C1 (stereo not drawn) [Compound C5, 3-{5-[1-[5-(3-trifluoromethyl-phenyl)-furan-2-yl]-methylidene]-4-oxo-2-thioxo-thiazolidin-3-yl}-cyclohexanecarboxylic acid]
IC50 (Dlat IC50 category): < 10 µM

O=C(O)c1ccc(F)c(N2C(=O)C(=Cc3ccc(-c4ccccc4Oc4ccccc4)o3)SC2=S)c1 [Compound A194]
IC50 [1]: < 10 µM

O=C(O)c1cccc(N2C(=O)C(=Cc3ccc(-c4ccncc4)o3)SC2=S)c1 [Compound Q4]
IC50 (Dlat IC50 category, Table 17, Compounds Q1 to Q9): 11 to 40 µM

NS(=O)(=O)c1cccc(N2C(=O)C(=Cc3ccc(-c4ccccc4Cl)o3)SC2=S)c1 [Compound A25]
IC50 [1]: 11 to 40 µM

O=C(O)C1CCCC(N2C(=O)C(=Cc3ccc(-c4cccc(-c5ccccc5)c4)o3)SC2=S)C1 (stereo not drawn) [Compound C38, 3-{5-[1-(5-biphenyl-3-yl-furan-2-yl)-methylidene]-4-oxo-2-thioxo-thiazolidin-3-yl}-cyclohexanecarboxylic acid]
IC50 (Dlat IC50 category): < 10 µM

O=C1C(=Cc2ccc(-c3cccc(C(F)(F)F)c3)o2)SC(=S)N1c1cccc(O)c1 [Compound A50]
IC50 [1]: 11 to 40 µM

Cc1ccc(C(=O)O)cc1N1C(=O)C(=Cc2ccc(-c3ccc(C(C)(C)C)cc3)o2)SC1=S [Compound A80]
IC50 [1]: < 10 µM

O=C(O)c1ccc(F)c(N2C(=O)C(=Cc3ccc(-c4cccc(CO)c4)o3)SC2=S)c1 [Compound A210]
IC50 [1]: < 10 µM

CC(CO)(CO)COC(=O)c1cccc(N2C(=O)C(=Cc3ccc(-c4ccccc4Cl)o3)SC2=S)c1 [Compound T5, 3-{5-[1-[5-(2-Chloro-phenyl)-furan-2-yl]-methylidene]-4-oxo-2-thioxo-thiazolidin-3-yl}-benzoic acid 3-hydroxy-2-hydroxymethyl-2-methyl propyl ester]
IC50 (Table 20, Prodrugs (Compounds T1 to T8), read-out: Dlat IC50 category): 11 to 40 µM

CCc1ccccc1-c1ccc(C=C2SC(=S)N(c3cccc(C(=O)O)c3)C2=O)o1 [Compound A249]
IC50 [1]: < 10 µM

O=C(O)c1ccc(F)c(N2C(=O)C(=Cc3ccc(-c4ccccc4F)o3)SC2=S)c1 [Compound A208]
IC50 [1]: 11 to 40 µM

O=C1C(=Cc2ccc(-c3ccc(Cl)cc3)o2)SC(=S)N1C1CCC(O)CC1 (stereo not drawn) [Compound C22, 5-[1-[5-(4-chloro-phenyl)-furan-2-yl]-methylidene]-3-(4-hydroxy-cyclohexyl)-2-thioxo-thiazolidin-4-one]
IC50 (Dlat IC50 category): 11 to 40 µM

O=C(O)CCCN1C(=O)C(=Cc2ccc(-c3cccc(C(F)(F)F)c3)o2)SC1=S [Compound B91]
IC50 (Dlat IC50 category): < 10 µM

O=C(O)c1ccc(Cl)c(N2C(=O)C(=Cc3ccc(-c4ccc(Cl)cc4)o3)SC2=S)c1 [Compound A72]
IC50 [1]: < 10 µM

O=C(O)c1cccc(N2C(=O)C(=Cc3ccccc3-c3ccccc3OCc3ccccc3Cl)SC2=S)c1 [Compound A192]
IC50 [1]: 11 to 40 µM

O=C(O)C(c1ccccc1)N1C(=O)C(=Cc2ccc(-c3ccc(Oc4ccccc4)cc3)o2)SC1=S (stereo not drawn) [Compound B28]
IC50 (Dlat IC50 category): 11 to 40 µM

CNS(=O)(=O)c1ccc(-c2ccc(C=C3SC(=S)N(CCCC(=O)O)C3=O)o2)cc1 [Compound B115]
IC50 (Dlat IC50 category): 41 to 80 µM

CC(=O)c1ccc(-c2ccc(C=C3SC(=S)N(Nc4ccccc4C(=O)O)C3=O)o2)cc1 [Compound D42, 2-{5-[1-[5-(4-acetyl-phenyl)-furan-2-yl]-methylidene]-4-oxo-2-thioxo-thiazolidin-3-ylamino}-benzoic acid]
IC50 (Dlat IC50 category): < 10 µM

CNS(=O)(=O)c1ccc(-c2ccc(C=C3SC(=S)N(c4ccc(F)c(C(=O)O)c4)C3=O)o2)cc1 [Compound A287]
IC50 [1]: 11 to 40 µM

COc1ccc(-c2ccc(C=C3SC(=S)N(Nc4ccccc4C(=O)O)C3=O)o2)c(OC)c1 [Compound D19, 2-{5-[1-[5-(2,4-dimethoxy-phenyl)-furan-2-yl]-methylidene]-4-oxo-2-thioxo-thiazolidin-3-ylamino}-benzoic acid]
IC50 (Dlat IC50 category): < 10 µM

CNS(=O)(=O)c1ccc(-c2ccc(C=C3SC(=S)N(C4CCC(C(=O)O)CC4)C3=O)o2)cc1 (stereo not drawn) [Compound C84, 4-{5-[5-(4-Methylsulfamoyl-phenyl)-furan-2-ylmethylene]-4-oxo-2-thioxo-thiazolidin-3-yl}-cyclohexanecarboxylic acid]
IC50 (Dlat IC50 category): < 10 µM

CCCCc1ccc(-c2ccc(C=C3SC(=S)N(c4ccc(F)c(C(=O)O)c4)C3=O)o2)cc1 [Compound A265]
IC50 [1]: < 10 µM

O=C(O)CN1C(=O)C(=Cc2ccc(-c3ccc(C4CCCC4)cc3)o2)SC1=S [Compound B81]
IC50 (Dlat IC50 category): < 10 µM

CC(=O)Nc1ccc(-c2ccc(C=C3SC(=S)N(c4cc(C(=O)O)cc(C(F)(F)F)c4)C3=O)o2)cc1 [Compound A261]
IC50 [1]: < 10 µM

CSc1ccc(-c2ccc(C=C3SC(=S)N(Nc4ccccc4C(=O)O)C3=O)o2)cc1 [Compound D53, 2-{5-[1-[5-(4-methylsulfanyl-phenyl)-furan-2-yl]-methylidene]-4-oxo-2-thioxo-thiazolidin-3-ylamino}-benzoic acid]
IC50 (Dlat IC50 category): 11 to 40 µM

O=C(O)c1ccc(F)c(N2C(=O)C(=Cc3ccc(-c4ccccc4-c4ccccc4)o3)SC2=S)c1 [Compound A245]
IC50 [1]: < 10 µM

O=C(O)c1ccccc1NN1C(=O)C(=Cc2ccc(-c3cccc([N+](=O)[O-])c3)o2)SC1=S [Compound D4, 2-{5-[1-[5-(3-nitro-phenyl)-furan-2-yl]-methylidene]-4-oxo-2-thioxo-thiazolidin-3-ylamino}-benzoic acid]
IC50 (Dlat IC50 category): < 10 µM

O=C(O)CN1C(=O)C(=Cc2ccc(-c3ccccc3Cl)o2)SC1=S [Compound B6]
IC50 (Dlat IC50 category): 11 to 40 µM

O=C(O)c1ccccc1NN1C(=O)C(=Cc2ccc(-c3ccccc3O)o2)SC1=S [Compound D12, 2-{5-[1-[5-(2-Hydroxy-phenyl)-furan-2-yl]-methylidene]-4-oxo-2-thioxo-thiazolidin-3-ylamino}-benzoic acid]
IC50 (Dlat IC50 category): < 10 µM

Cc1cc(C)c(-c2ccc(C=C3SC(=S)N(c4cccc(C(=O)O)c4)C3=O)o2)c(C)c1 [Compound A184]
IC50 [1]: 11 to 40 µM

Nc1ccccc1-c1ccc(C=C2SC(=S)N(c3cccc(C(=O)O)c3)C2=O)o1 [Compound A158]
IC50 [1]: > 41 µM

NS(=O)(=O)c1ccc(N2C(=O)C(=Cc3ccc(-c4ccc(Oc5ccccc5)cc4)o3)SC2=S)cc1 [Compound A15]
IC50 [1]: > 41 µM

CC(C)C(C(=O)O)N1C(=O)C(=Cc2ccc(-c3ccccc3C(F)(F)F)o2)SC1=S (stereo not drawn) [Compound B104]
IC50 (Dlat IC50 category): < 10 µM

CC(C)c1cccc(-c2ccc(C=C3SC(=S)N(c4cccc(OCC(=O)O)c4)C3=O)o2)c1 [Compound A63]
IC50 [1]: < 10 µM

O=C(O)c1cc(N2C(=O)C(=Cc3ccc(-c4ccccc4Cl)o3)SC2=S)ccc1O [Compound A33]
IC50 [1]: < 10 µM

Cc1ccc(-c2cccc(C=C3SC(=S)N(Nc4ccccc4C(=O)O)C3=O)c2)cc1 [Compound D55, 2-{5-[1-(4′-methyl-biphenyl-3-yl)-methylidene]-4-oxo-2-thioxo-thiazolidin-3-ylamino}-benzoic acid]
IC50 (Dlat IC50 category): < 10 µM

CC(C)Cc1ccc(-c2ccc(C=C3SC(=S)N(c4cccc(C(=O)O)c4)C3=O)o2)cc1 [Compound A64]
IC50 [1]: < 10 µM

O=C(OCCCCOP(=O)(O)O)c1cccc(N2C(=O)C(=Cc3ccc(-c4ccccc4Cl)o3)SC2=S)c1 [Compound T3, 3-{5-[1-[5-(2-Chloro-phenyl)-furan-2-yl]-methylidene]-4-oxo-2-thioxo-thiazolidin-3-yl}-benzoic acid 4-phosphonooxy-butyl ester]
IC50 (Dlat IC50 category, Table 20, Prodrugs (Compounds T1 to T8)): 41 to 80 µM

O=C(O)c1cc(N2C(=O)C(=Cc3ccc(-c4cccc(C(F)(F)F)c4)o3)SC2=S)ccc1Cl [Compound A67]
IC50 [1]: < 10 µM
